Assay results reported in ChEMBL document CHEMBL1154273, “Synthesis and antimalarial activity of new atovaquone derivatives” (Eur J Med Chem, 2009).

system: Plasmodium falciparum; assay: Antimalarial activity against Plasmodium falciparum Nigerian assessed as [3H]hypoxanthine uptake after 48 hrs by liquid scintillation counting; assay type: functional, organism-based

Structure (SMILES) | IC50
CCCCCCCCCCCCCCCCCC(=O)OC1=C([C@H]2CC[C@H](c3ccc(Cl)cc3)CC2)C(=O)c2ccccc2C1=O | 52 nM
O=C(Cc1ccc(Cl)cc1)OC1=C([C@H]2CC[C@H](c3ccc(Cl)cc3)CC2)C(=O)c2ccccc2C1=O | 1.65 nM
O=C(OC1=C([C@H]2CC[C@H](c3ccc(Cl)cc3)CC2)C(=O)c2ccccc2C1=O)c1ccc(F)cc1 | 1.6 nM
O=C(Cc1ccc(F)cc1)OC1=C([C@H]2CC[C@H](c3ccc(Cl)cc3)CC2)C(=O)c2ccccc2C1=O | 1.75 nM
O=C(/C=C/c1ccccc1)OC1=C([C@H]2CC[C@H](c3ccc(Cl)cc3)CC2)C(=O)c2ccccc2C1=O | 1.45 nM
CCCCCCCCCC(=O)OC1=C([C@H]2CC[C@H](c3ccc(Cl)cc3)CC2)C(=O)C(=O)c2ccccc21 | > 100 nM
O=C1C(OCc2ccccc2)=C([C@H]2CC[C@H](c3ccc(Cl)cc3)CC2)C(=O)c2ccccc21 | 7.65 nM
CCCCCCCCCOC1=C([C@H]2CC[C@H](c3ccc(Cl)cc3)CC2)C(=O)c2ccccc2C1=O | 14 nM
CCCCCCCCCCOC1=C([C@H]2CC[C@H](c3ccc(Cl)cc3)CC2)C(=O)c2ccccc2C1=O | 11 nM
CCCCCCCC(=O)OC1=C([C@H]2CC[C@H](c3ccc(Cl)cc3)CC2)C(=O)c2ccccc2C1=O | 1.5 nM
CC(=O)OC1=C([C@H]2CC[C@H](c3ccc(Cl)cc3)CC2)C(=O)c2ccccc2C1=O | 1.5 nM
CCCCCC(=O)OC1=C([C@H]2CC[C@H](c3ccc(Cl)cc3)CC2)C(=O)c2ccccc2C1=O | 1.25 nM
O=C1C(O)=C([C@H]2CC[C@H](c3ccc(Cl)cc3)CC2)C(=O)c2ccccc21 [ATOVAQUONE] | 0.75 nM
C=C[C@H]1CN2CC[C@H]1C[C@H]2[C@H](O)c1ccnc2ccc(OC)cc12 [QUININE] | 180 nM

Second part, the compound after the results:

IC50 | Structure (SMILES)
32 nM | CCCCCCCCCCCCCCCCCCOC1=C([C@H]2CC[C@H](c3ccc(Cl)cc3)CC2)C(=O)c2ccccc2C1=O
1.9 nM | CCCCCCCCCC(=O)OC1=C([C@H]2CC[C@H](c3ccc(Cl)cc3)CC2)C(=O)c2ccccc2C1=O
5.55 nM | CCOC1=C([C@H]2CC[C@H](c3ccc(Cl)cc3)CC2)C(=O)c2ccccc2C1=O
13.5 nM | CCCCCCOC1=C([C@H]2CC[C@H](c3ccc(Cl)cc3)CC2)C(=O)c2ccccc2C1=O
3.1 nM | CCCCCCCCC(=O)OC1=C([C@H]2CC[C@H](c3ccc(Cl)cc3)CC2)C(=O)c2ccccc2C1=O
1.25 nM | O=C(OC1=C([C@H]2CC[C@H](c3ccc(Cl)cc3)CC2)C(=O)c2ccccc2C1=O)c1ccccc1
